In patent publication US5599791A, “Amides of antibiotic GE 2270 factors” (Gruppo Lepetit SPA, priority 1991, dated 1997):

What was measured:
[1] = test system: Haemophilus Influenzae type B; assay: MIC, microbroth dilution; type: cell-based; details: brain heart infusion broth +1% Supplement C, 48 h, 37° C., 5% CO2
Description: (§1) MIC for Propionibacterium aches, and Bacteroides fragilis are determined by agar dilution (inocula 10^4 /10^5 CFU/spot). MIC for other organisms are determined by microbroth dilution (inocula 10^4 to 10^5 CFU/ml). Incubation times are 18-24 h, except for Haemophilus influenzae, P. acnes, B. fragilis (48 h). All organisms are incubated at 37° C.; H. influenzae is incubated in a 5% CO2 atmosphere, anaerobes in an anaerobic gas mixture. Media used are: Iso-Sensitest broth (Oxoid) (Staphylococci, Streptococcus faecalis, Escherichia coli, Proteus vulgaris; brain heart infusion broth (Difco)+1% Supplement C (Difco) (H. influenzae); The minimal inhibitory concentrations (MIC, microgram/ml) for some microorganisms are reported below in Table VII.

[2] = test system: Staph. epidermidis L147 ATCC 12228; assay: MIC, microbroth dilution; type: cell-based; details: inocula 10^4 to 10^5 CFU/ml, Iso-Sensitest broth, 18-24 h, 37° C.
Description: as §1

Staph. aureus L165 Tour = assay: MIC, microbroth dilution; type: cell-based; details: inocula 10^4 to 10^5 CFU/ml, Iso-Sensitest broth, 18-24 h, 37° C.
Description: as §1

Staph. haemolyticus L602 = assay: MIC, microbroth dilution; type: cell-based; details: inocula 10^4 to 10^5 CFU/ml, Iso-Sensitest broth, 18-24 h, 37° C.
Description: as §1

[3] = test system: Strep. pneumoniae L44 UC41; assay: MIC, microbroth dilution; type: cell-based; details: inocula 10^4 to 10^5 CFU/ml, 18-24 h, 37° C.
Description: as §1

[4] = test system: Strep. faecalis L149 ATCC 7080; assay: MIC, microbroth dilution; type: cell-based, Streptococcus faecalis; details: inocula 10^4 to 10^5 CFU/ml, Iso-Sensitest broth, 18-24 h, 37° C.
Description: as §1

Prot. vulgaris ATCC 881 = assay: MIC, microbroth dilution; type: cell-based, Proteus vulgaris; details: inocula 10^4 to 10^5 CFU/ml, Iso-Sensitest broth, 18-24 h, 37° C.
Description: as §1

[5] = test system: Bact. fragilis L1010 ATCC 23745; assay: MIC, agar dilution; type: cell-based, Bacteroides fragilis; details: inocula 10^4 /10^5 CFU/spot, 48 h, 37° C., anaerobic gas mixture
Description: as §1

Esch. coli L47 SKF 12140 = assay: MIC, microbroth dilution; type: cell-based, Escherichia coli; details: inocula 10^4 to 10^5 CFU/ml, Iso-Sensitest broth, 18-24 h, 37° C.
Description: as §1

[6] = test system: Prop. acnes L1014 ATCC 6919; assay: MIC, agar dilution; type: cell-based, P. acnes; details: inocula 10^4 /10^5 CFU/spot, 48 h, 37° C., anaerobic gas mixture
Description: as §1

Row | SMILES | MIC [1] | MIC [2] | MIC (Staph. aureus L165 Tour) | MIC (Staph. haemolyticus L602) | MIC [3] | MIC [4] | MIC (Prot. vulgaris ATCC 881) | MIC [5] | MIC (Esch. coli L47 SKF 12140) | MIC [6]
1 | CNC(=O)CC1NC(=O)c2nc(sc2COC)C(C(C)C)NC(=O)c2csc(n2)-c2ccc(-c3nc(C(=O)NCCNCCC(=O)O)cs3)nc2-c2csc(n2)-c2csc(n2)C(C(O)c2ccccc2)NC(=O)CNC(=O)c2nc1sc2C (stereo not drawn) [Compound 38] | > 128 microgram/ml | 32 microgram/ml | 32 microgram/ml | 64 microgram/ml | > 128 microgram/ml | 16 microgram/ml | > 128 microgram/ml | > 128 microgram/ml | > 128 microgram/ml | 0.25 microgram/ml
2 | CNC(=O)CC1NC(=O)c2nc(sc2COC)C(C(C)C)NC(=O)c2csc(n2)-c2ccc(-c3nc(C(=O)NCCSCCC(=O)O)cs3)nc2-c2csc(n2)-c2csc(n2)C(C(O)c2ccccc2)NC(=O)CNC(=O)c2nc1sc2C (stereo not drawn) [Compound 39] | 1 microgram/ml | 0.25 microgram/ml | 0.13 microgram/ml | 2 microgram/ml | 4 microgram/ml | ≤ 0.13 microgram/ml | > 128 microgram/ml | 8 microgram/ml | > 128 microgram/ml | ≤ 0.13 microgram/ml
3 | CNC(=O)CC1NC(=O)c2nc(sc2COC)C(C(C)C)NC(=O)c2csc(n2)-c2ccc(-c3nc(C(=O)NCCOCCC(=O)O)cs3)nc2-c2csc(n2)-c2csc(n2)C(C(O)c2ccccc2)NC(=O)CNC(=O)c2nc1sc2C (stereo not drawn) [Compound 41] | 1 microgram/ml | 0.5 microgram/ml | 0.25 microgram/ml | 1 microgram/ml | 2 microgram/ml | ≤ 0.13 microgram/ml | > 128 microgram/ml | 4 microgram/ml | > 128 microgram/ml | ≤ 0.13 microgram/ml
4 | CNC(=O)CC1NC(=O)c2nc(sc2COC)C(C(C)C)NC(=O)c2csc(n2)-c2ccc(-c3nc(C(=O)NCCCCCC(=O)O)cs3)nc2-c2csc(n2)-c2csc(n2)C(C(O)c2ccccc2)NC(=O)CNC(=O)c2nc1sc2CO (stereo not drawn) [Compound 42] | 4 microgram/ml | 0,13 microgram/ml | 0,13 microgram/ml | 0.5 microgram/ml | 1 microgram/ml | 0.13 microgram/ml | > 128 microgram/ml | > 128 microgram/ml | > 128 microgram/ml | 0.016 microgram/ml
5 | Cc1sc2nc1C(=O)NCC(=O)NC(C(O)c1ccccc1)c1nc(cs1)-c1nc(cs1)-c1nc(-c3nc(C(=O)NCCCCCC(=O)O)cs3)ccc1-c1nc(cs1)C(=O)NC(C(C)C)c1nc(cs1)C(=O)NC2CC(N)=O (stereo not drawn) [Compound 43] | > 128 microgram/ml | 0.5 microgram/ml | 0.13 microgram/ml | 0.5 microgram/ml | 0.5 microgram/ml | 0.13 microgram/ml | > 128 microgram/ml | > 128 microgram/ml | > 128 microgram/ml | 0.016 microgram/ml
6 | CNC(=O)CC1NC(=O)c2nc(sc2CO)C(C(C)C)NC(=O)c2csc(n2)-c2ccc(-c3nc(C(=O)NCCCCCC(=O)O)cs3)nc2-c2csc(n2)-c2csc(n2)C(C(O)c2ccccc2)NC(=O)CNC(=O)c2nc1sc2C (stereo not drawn) [Compound 44] | > 128 microgram/ml | 0.5 microgram/ml | 0.13 microgram/ml | 1 microgram/ml | 1 microgram/ml | 0.06 microgram/ml | > 128 microgram/ml | > 128 microgram/ml | > 128 microgram/ml | 0.016 microgram/ml
